Test system: GM1 production in Jurkat cells
Experiment: cells
Assay type: cell-based
Conditions: not given

Structure (SMILES)	IC50 [nM]
COc1cc2c(cc1-c1ccc(CC(C)C)cc1)CC(C)(C)C2NC(=O)O[C@@H]1CN2CCC1CC2 (stereo partly drawn) [Example 325, (S)-quinuclidin-3-yl (5-(4-isobutylphenyl)-6-methoxy-2,2-dimethyl-2,3-dihydro-1H-inden-1-yl)carbamate]	2.1

Same assay, conditions: Homo sapiens, Jurkat, 72 h

Structure (SMILES)	IC50 [nM]
CCOc1ccc(-c2cc3c(cc2OC)C(NC(=O)O[C@@H]2CN4CCC2CC4)C(C)(C)C3)cc1 (stereo partly drawn) [Example 318, (S)-quinuclidin-3-yl (5-(4-ethoxyphenyl)-6-methoxy-2,2-dimethyl-2,3-dihydro-1H-inden-1-yl)carbamate]	20
CCCOc1ccc(-c2cc3c(cc2OC)C(NC(=O)O[C@@H]2CN4CCC2CC4)C(C)(C)C3)cc1 (stereo partly drawn) [Example 319, (S)-quinuclidin-3-yl (6-methoxy-2,2-dimethyl-5-(4-propoxyphenyl)-2,3-dihydro-1H-inden-1-yl)carbamate]	7.7
COc1cc2c(cc1-c1ccc(OC(C)C)cc1)CC(C)(C)C2NC(=O)O[C@@H]1CN2CCC1CC2 (stereo partly drawn) [Example 320, (S)-quinuclidin-3-yl (5-(4-isopropoxyphenyl)-6-methoxy-2,2-dimethyl-2,3-dihydro-1H-inden-1-yl)carbamate]	8.5
CCCOc1c(C)cc(-c2cc3c(cc2OC)C(NC(=O)O[C@@H]2CN4CCC2CC4)C(C)(C)C3)cc1C (stereo partly drawn) [Example 321, (S)-quinuclidin-3-yl (5-(3,5-dimethyl-4-propoxyphenyl)-6-methoxy-2,2-dimethyl-2,3-dihydro-1H-inden-1-yl)carbamate]	31.9
COc1cc2c(cc1-c1ccc(OC(C)C)c(Cl)c1)CC(C)(C)C2NC(=O)O[C@@H]1CN2CCC1CC2 (stereo partly drawn) [Example 322, (S)-quinuclidin-3-yl (5-(3-chloro-4-isopropoxyphenyl)-6-methoxy-2,2-dimethyl-2,3-dihydro-1H-inden-1-yl)carbamate]	24.4
COc1ccc(-c2cc3c(cc2OC)C(NC(=O)O[C@@H]2CN4CCC2CC4)C(C)(C)C3)c(F)c1 (stereo partly drawn) [Example 323, (S)-quinuclidin-3-yl (5-(2-fluoro-4-methoxyphenyl)-6-methoxy-2,2-dimethyl-2,3-dihydro-1H-inden-1-yl)carbamate]	78.9
CCCCOc1ccc(-c2cc3c(cc2OC)C(NC(=O)O[C@@H]2CN4CCC2CC4)C(C)(C)C3)cc1 (stereo partly drawn) [Example 324, (S)-quinuclidin-3-yl (5-(4-butoxyphenyl)-6-methoxy-2,2-dimethyl-2,3-dihydro-1H-inden-1-yl)carbamate]	5.8
COc1cc2c(cc1-c1ccc(OCC3CC3)nc1)CC(C)(C)C2NC(=O)O[C@@H]1CN2CCC1CC2 (stereo partly drawn) [Example 326, (S)-quinuclidin-3-yl (5-(6-(cyclopropylmethoxy)pyridin-3-yl)-6-methoxy-2,2-dimethyl-2,3-dihydro-1H-inden-1-yl)carbamate]	10.8
COc1ccc(Cl)cc1-c1cc2c(cc1OC)C(NC(=O)O[C@@H]1CN3CCC1CC3)C(C)(C)C2 (stereo partly drawn) [Example 327, (S)-quinuclidin-3-yl (5-(5-chloro-2-methoxyphenyl)-6-methoxy-2,2-dimethyl-2,3-dihydro-1H-inden-1-yl)carbamate]	16.8
CCCCc1ccc(-c2cc3c(cc2OC)C(NC(=O)O[C@@H]2CN4CCC2CC4)C(C)(C)C3)cc1 (stereo partly drawn) [Example 328, (S)-quinuclidin-3-yl (5-(4-butylphenyl)-6-methoxy-2,2-dimethyl-2,3-dihydro-1H-inden-1-yl)carbamate]	11.4
COc1cc2c(cc1-c1cc(C)c(OC)c(C)c1)CC(C)(C)C2NC(=O)O[C@@H]1CN2CCC1CC2 (stereo partly drawn) [Example 329, (S)-quinuclidin-3-yl (6-methoxy-5-(4-methoxy-3,5-dimethylphenyl)-2,2-dimethyl-2,3-dihydro-1H-inden-1-yl)carbamate]	65.8
CCOc1c(C)cc(-c2cc3c(cc2OC)C(NC(=O)O[C@@H]2CN4CCC2CC4)C(C)(C)C3)cc1C (stereo partly drawn) [Example 330, (S)-quinuclidin-3-yl (5-(4-ethoxy-3,5-dimethylphenyl)-6-methoxy-2,2-dimethyl-2,3-dihydro-1H-inden-1-yl)carbamate]	52.7
CCCCOc1c(C)cc(-c2cc3c(cc2OC)C(NC(=O)O[C@@H]2CN4CCC2CC4)C(C)(C)C3)cc1C (stereo partly drawn) [Example 331, (S)-quinuclidin-3-yl (5-(4-butoxy-3,5-dimethylphenyl)-6-methoxy-2,2-dimethyl-2,3-dihydro-1H-inden-1-yl)carbamate]	22.6
COc1cc(-c2cc3c(cc2OC)C(NC(=O)O[C@@H]2CN4CCC2CC4)C(C)(C)C3)ccn1 (stereo partly drawn) [Example 332, (S)-quinuclidin-3-yl (6-methoxy-5-(2-methoxypyridin-4-yl)-2,2-dimethyl-2,3-dihydro-1H-inden-1-yl)carbamate]	158
COc1cc2c(cc1-c1cccc(F)c1)CC(C)(C)C2NC(=O)O[C@@H]1CN2CCC1CC2 (stereo partly drawn) [Example 333, (S)-quinuclidin-3-yl (5-(3-fluorophenyl)-6-methoxy-2,2-dimethyl-2,3-dihydro-1H-inden-1-yl)carbamate]	45
CCc1cccc(-c2cc3c(cc2OC)C(NC(=O)O[C@@H]2CN4CCC2CC4)C(C)(C)C3)c1 (stereo partly drawn) [Example 334, (S)-quinuclidin-3-yl (5-(3-ethylphenyl)-6-methoxy-2,2-dimethyl-2,3-dihydro-1H-inden-1-yl)carbamate]	20.9
COc1cc2c(cc1-c1cccc(CC(C)C)c1)CC(C)(C)C2NC(=O)O[C@@H]1CN2CCC1CC2 (stereo partly drawn) [Example 335, (S)-quinuclidin-3-yl (5-(3-isobutylphenyl)-6-methoxy-2,2-dimethyl-2,3-dihydro-1H-inden-1-yl)carbamate]	50.4

Structure (SMILES)	IC50 [nM]
COc1cc2c(cc1-c1cccc(C(C)C)c1)CC(C)(C)C2NC(=O)O[C@@H]1CN2CCC1CC2 (stereo partly drawn) [Example 336, (S)-quinuclidin-3-yl (5-(3-isopropylphenyl)-6-methoxy-2,2-dimethyl-2,3-dihydro-1H-inden-1-yl)carbamate]	48
COc1cc2c(cc1-c1cccc(C(C)(C)C)c1)CC(C)(C)C2NC(=O)O[C@@H]1CN2CCC1CC2 (stereo partly drawn) [Example 337, (S)-quinuclidin-3-yl (5-(3-(tert-butyl)phenyl)-6-methoxy-2,2-dimethyl-2,3-dihydro-1H-inden-1-yl)carbamate]	65
COc1cccc(-c2cc3c(cc2OC)C(NC(=O)O[C@@H]2CN4CCC2CC4)C(C)(C)C3)c1 (stereo partly drawn) [Example 338, (S)-quinuclidin-3-yl (6-methoxy-5-(3-methoxyphenyl)-2,2-dimethyl-2,3-dihydro-1H-inden-1-yl)carbamate]	53.7
CCOc1cccc(-c2cc3c(cc2OC)C(NC(=O)O[C@@H]2CN4CCC2CC4)C(C)(C)C3)c1 (stereo partly drawn) [Example 339, (S)-quinuclidin-3-yl (5-(3-ethoxyphenyl)-6-methoxy-2,2-dimethyl-2,3-dihydro-1H-inden-1-yl)carbamate]	62.5
CCCOc1cccc(-c2cc3c(cc2OC)C(NC(=O)O[C@@H]2CN4CCC2CC4)C(C)(C)C3)c1 (stereo partly drawn) [Example 340, (S)-quinuclidin-3-yl (6-methoxy-2,2-dimethyl-5-(3-propoxyphenyl)-2,3-dihydro-1H-inden-1-yl)carbamate]	43.8
COc1cc2c(cc1-c1cccc(OC(C)C)c1)CC(C)(C)C2NC(=O)O[C@@H]1CN2CCC1CC2 (stereo partly drawn) [Example 341, (S)-quinuclidin-3-yl (5-(3-isopropoxyphenyl)-6-methoxy-2,2-dimethyl-2,3-dihydro-1H-inden-1-yl)carbamate]	61.9
CCCCOc1cccc(-c2cc3c(cc2OC)C(NC(=O)O[C@@H]2CN4CCC2CC4)C(C)(C)C3)c1 (stereo partly drawn) [Example 342, (S)-quinuclidin-3-yl (5-(3-butoxyphenyl)-6-methoxy-2,2-dimethyl-2,3-dihydro-1H-inden-1-yl)carbamate]	21.6
COc1cc2c(cc1-c1cccc(OCC(C)C)c1)CC(C)(C)C2NC(=O)O[C@@H]1CN2CCC1CC2 (stereo partly drawn) [Example 343, (S)-quinuclidin-3-yl (5-(3-isobutoxyphenyl)-6-methoxy-2,2-dimethyl-2,3-dihydro-1H-inden-1-yl)carbamate]	45.7
COc1ccc(OC)c(-c2cc3c(cc2OC)C(NC(=O)O[C@@H]2CN4CCC2CC4)C(C)(C)C3)c1 (stereo partly drawn) [Example 344, (S)-quinuclidin-3-yl (5-(2,5-dimethoxyphenyl)-6-methoxy-2,2-dimethyl-2,3-dihydro-1H-inden-1-yl)carbamate]	51
COc1cc(OC)cc(-c2cc3c(cc2OC)C(NC(=O)O[C@@H]2CN4CCC2CC4)C(C)(C)C3)c1 (stereo partly drawn) [Example 345, (S)-quinuclidin-3-yl (5-(3,5-dimethoxyphenyl)-6-methoxy-2,2-dimethyl-2,3-dihydro-1H-inden-1-yl)carbamate]	45.7
COc1ccc(-c2cc3c(cc2OC)C(NC(=O)O[C@@H]2CN4CCC2CC4)C(C)(C)C3)c(Cl)c1 (stereo partly drawn) [Example 346, (S)-quinuclidin-3-yl (5-(2-chloro-4-methoxyphenyl)-6-methoxy-2,2-dimethyl-2,3-dihydro-1H-inden-1-yl)carbamate]	38.3
CCOc1ccc(-c2cc3c(cc2OC)C(NC(=O)O[C@@H]2CN4CCC2CC4)C(C)(C)C3)cc1F (stereo partly drawn) [Example 347, (S)-quinuclidin-3-yl (5-(4-ethoxy-3-fluorophenyl)-6-methoxy-2,2-dimethyl-2,3-dihydro-1H-inden-1-yl)carbamate]	46.8
COc1cc2c(cc1-c1cc(C)c(OC(C)C)c(C)c1)CC(C)(C)C2NC(=O)O[C@@H]1CN2CCC1CC2 (stereo partly drawn) [Example 348, (S)-quinuclidin-3-yl (5-(4-isopropoxy-3,5-dimethylphenyl)-6-methoxy-2,2-dimethyl-2,3-dihydro-1H-inden-1-yl)carbamate]	44.1
CCc1ccc(-c2cc3c(cc2F)C(NC(=O)O[C@@H]2CN4CCC2CC4)C(C)(C)C3)cc1 (stereo partly drawn) [Example 349, (S)-quinuclidin-3-yl (5-(4-ethylphenyl)-6-fluoro-2,2-dimethyl-2,3-dihydro-1H-inden-1-yl)carbamate]	10.3
CCCc1ccc(-c2cc3c(cc2F)C(NC(=O)O[C@@H]2CN4CCC2CC4)C(C)(C)C3)cc1 (stereo partly drawn) [Example 350, (S)-quinuclidin-3-yl (6-fluoro-2,2-dimethyl-5-(4-propylphenyl)-2,3-dihydro-1H-inden-1-yl)carbamate]	4.5
CC(C)c1ccc(-c2cc3c(cc2F)C(NC(=O)O[C@@H]2CN4CCC2CC4)C(C)(C)C3)cc1 (stereo partly drawn) [Example 351, (S)-quinuclidin-3-yl (6-fluoro-5-(4-isopropylphenyl)-2,2-dimethyl-2,3-dihydro-1H-inden-1-yl)carbamate]	7.4
